What was measured:
Format in all cases: in vivo
[1] = test system: Spodoptera littoralis (Egyptian cotton leaf worm); assay: Spodoptera littoralis (systemic) test, compound in agar taken up by salad roots; conditions: 120 h, application rate 12.5 ppm, checked 5 days after infestation for mortality, repellent effect, feeding behavior, growth regulation
Excerpt: Test compounds were applied by pipette into 24 well plates and mixed with agar. Salad seeds were placed on the agar and the multi well plate is closed by another plate which contains also agar. After 7 days the roots have absorbed the compound and the salad has grown into the lid plate. The salad leafs were now cut off into the lid plate. Spodoptera eggs were pipette through a plastic stencil on a humid gel blotting paper and the plate closed with it. The samples are checked for mortality, repellent effect, feeding behavior, and growth regulation 5 days after infestation. Application rate: 12.5 ppm
Test compounds were applied by pipette into 24 well plates and mixed with agar. Salad seeds were placed on the agar and the multi well plate is closed by another plate which contains also agar. After 7 days the roots have absorbed the compound and the salad has grown into the lid plate. The salad leafs were now cut off into the lid plate. Spodoptera eggs were pipette through a plastic stencil on a humid gel blotting paper and the plate closed with it. The samples are checked for mortality, repellent effect, feeding behavior, and growth regulation 5 days after infestation.

[2] = test system: Spodoptera littoralis (Egyptian cotton leafworm); assay: Spodoptera littoralis cotton leaf disc spray test; conditions: foliar, 72 h, cotton leaf discs sprayed at 200 ppm, 5 L1 larvae, mortality, feeding behavior, growth regulation 3 days after treatment
Excerpt: Cotton leaf discs were placed on agar in a 24-well microtiter plate and sprayed with test solutions at an application rate of 200 ppm. After drying, the leaf discs were infested with 5 L1 larvae. The samples were checked for mortality, feeding behavior, and growth regulation 3 days after treatment (DAT).

[3] = test system: Heliothis virescens (tobacco budworm); assay: Heliothis virescens egg test on artificial diet; conditions: 96 h, 200 ppm (concentration in well 18 ppm), eggs 0-24 h old, 4 days, egg mortality, larval mortality, growth regulation
Protocol: Eggs (0-24 h old) were placed in 24-well microtiter plate on artificial diet and treated with test solutions at an application rate of 200 ppm (concentration in well 18 ppm) by pipetting. After an incubation period of 4 days, samples were checked for egg mortality, larval mortality, and growth regulation.

[4] = test system: Plutella xylostella (diamond back moth); assay: Plutella xylostella L2 larvae test on artificial diet; conditions: 144 h, 200 ppm (concentration in well 18 ppm), 6 days, larval mortality and growth regulation
Protocol: 24-well microtiter plate (MTP) with artificial diet was treated with test solutions at an application rate of 200 ppm (concentration in well 18 ppm) by pipetting. After drying, the MTPs were infested with L2 larvae (7-12 per well). After an incubation period of 6 days, samples were checked for larval mortality and growth regulation.

[5] = test system: Diabrotica balteata (corn root worm); assay: Diabrotica balteata L2 larvae test on artificial diet; conditions: 120 h, 200 ppm (concentration in well 18 ppm), 5 days, larval mortality and growth regulation
In short: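 Artificial diet treated with test solution at 200 ppm or 12.5 ppm application rate (in-well concentration stated as 18 ppm), dried, then infested with 6-10 L2 larvae per well. Larval mortality and growth regulation scored after 5 days.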

[6] = test system: Myzus persicae (green peach aphid); assay: Myzus persicae (sachet) mixed population test; conditions: 120 h, sucrose solution, application rate 12.5 ppm, mortality 5 days after infestation
Excerpt: Test compounds were applied by pipette into 24 well plates and mixed with Sucrose solution. The plates were closed with a stretched Parafilm. A plastic stencil with 24 holes is placed onto the plate and infested pea seedlings were placed directly on the Parafilm. The infested plate is closed with a gel blotting paper and another plastic stencil and then turned upside down. 5 days after infestation the samples were checked on mortality. Application rate: 12.5 ppm.

[7] = test system: Thrips tabaci (onion thrips); assay: Thrips tabaci sunflower leaf disc spray test; conditions: foliar, 168 h, sunflower leaf discs sprayed at 200 ppm, mixed ages, mortality after 7 days
Protocol: Sunflower leaf discs were placed on agar in a 24-well microtiter plate and sprayed with test solutions at an application rate of 200 ppm. […] After drying, the leaf discs were infested with a thrip population of mixed ages. After an incubation period of 7 days, samples were checked for mortality.

[8] = test system: Tetranychus urticae (two-spotted spider mite); assay: Tetranychus urticae bean leaf disc spray test; conditions: foliar, 192 h, bean leaf discs sprayed at 200 ppm, mixed ages, egg, larval and adult mortality 8 days later
In short: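 Leaf discs of bean on agar were sprayed at 200 ppm, dried, then infested with mixed-age mites. Egg, larval and adult mortality were scored 8 days later.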

Cc1cc(C2=CC(c3cc(Cl)cc(Cl)c3)(C(F)(F)F)OC2)ccc1C(=O)NCC(=O)NCC(F)(F)F (stereo not shown) [Compound A1, 4-[5-(3,5-Dichloro-phenyl)-5-trifluoromethyl-2,5-dihydro-furan-3-yl]-2-methyl-N-[(2,2,2-trifluoro-ethylcarbamoyl)-methyl]-benzamide]
≥ 80%: pest or weed control at 12.5 ppm [1] | pest or weed control at 200 ppm [2] | pest or weed control at 200 ppm [3] | pest or weed control at 200 ppm [4] | pest or weed control at 200 ppm [5] | pest or weed control at 12.5 ppm [6] | pest or weed control at 200 ppm [7] | pest or weed control at 200 ppm [8]

Cc1cc(C2=CC(c3cc(Cl)cc(Cl)c3)(C(F)(F)F)OC2)ccc1C(=O)NC1CS(=O)(=O)C1 (stereo not shown) [Compound A15]
≥ 80%: pest or weed control at 12.5 ppm [1] | pest or weed control at 200 ppm [2] | pest or weed control at 200 ppm [3] | pest or weed control at 200 ppm [4] | pest or weed control at 200 ppm [5] | pest or weed control at 12.5 ppm [6] | pest or weed control at 200 ppm [7] | pest or weed control at 200 ppm [8]

CCN1OC[C@H](NC(=O)c2ccc(C3=CC(c4cc(Cl)cc(Cl)c4)(C(F)(F)F)OC3)cc2C)C1=O (stereo partly drawn) [Compound A16, 4-[5-(3,5-Dichloro-phenyl)-5-trifluoromethyl-2,5-dihydro-furan-3-yl]-N—((S)-2-ethyl-3-oxo-isoxazolidin-4-yl)-2-methyl-benzamide]
≥ 80%: pest or weed control at 12.5 ppm [1] | pest or weed control at 200 ppm [2] | pest or weed control at 200 ppm [3] | pest or weed control at 200 ppm [4] | pest or weed control at 200 ppm [5] | pest or weed control at 12.5 ppm [6] | pest or weed control at 200 ppm [7] | pest or weed control at 200 ppm [8]

Cc1nc(C2=CC(c3cc(Cl)cc(Cl)c3)(C(F)(F)F)OC2)ccc1C(=O)NCC(=O)NCC(F)(F)F (stereo not shown) [Compound C5]
≥ 80%: pest or weed control at 12.5 ppm [1] | pest or weed control at 200 ppm [2] | pest or weed control at 200 ppm [3] | pest or weed control at 200 ppm [4] | pest or weed control at 200 ppm [5] | pest or weed control at 12.5 ppm [6] | pest or weed control at 200 ppm [7] | pest or weed control at 200 ppm [8]

Cc1nc(C2=CC(c3cc(Cl)cc(Cl)c3)(C(F)(F)F)OC2)ccc1C(=O)NC1CS(=O)(=O)C1 (stereo not shown) [Compound C13]
≥ 80%: pest or weed control at 12.5 ppm [1] | pest or weed control at 200 ppm [2] | pest or weed control at 200 ppm [3] | pest or weed control at 200 ppm [4] | pest or weed control at 200 ppm [5] | pest or weed control at 12.5 ppm [6] | pest or weed control at 200 ppm [7] | pest or weed control at 200 ppm [8]

Cc1cc(C2=CC(c3cc(Cl)cc(Cl)c3)(C(F)(F)F)OC2)ccc1C(=O)NCC(F)(F)F (stereo not shown) [Compound D1]
≥ 80%: pest or weed control at 12.5 ppm [1] | pest or weed control at 200 ppm [7]

Cc1cc(C2=CO[C@@](c3cc(Cl)cc(Cl)c3)(C(F)(F)F)C2)ccc1C(=O)NCC(=O)NCC(F)(F)F [Compound D5, 4-[(2S)-2-(3,5-dichlorophenyl)-2-(trifluoromethyl)-3H-furan-4-yl]-2-methyl-N-[2-oxo-2-(2,2,2-trifluoroethylamino)ethyl]benzamide]
≥ 80%: pest or weed control at 12.5 ppm [1] | pest or weed control at 200 ppm [2] | pest or weed control at 200 ppm [3] | pest or weed control at 200 ppm [4] | pest or weed control at 200 ppm [5] | pest or weed control at 12.5 ppm [6] | pest or weed control at 200 ppm [7] | pest or weed control at 200 ppm [8]

Cc1cc(C2=CC(c3cc(Cl)cc(Cl)c3)(C(F)(F)F)OC2)ccc1C(=O)NCC1CCCO1 (stereo not shown) [Compound D8]
≥ 80%: pest or weed control at 12.5 ppm [1] | pest or weed control at 12.5 ppm [6] | pest or weed control at 200 ppm [7] | pest or weed control at 200 ppm [8]

Cc1cc(C2=CC(c3cc(Cl)cc(Cl)c3)(C(F)(F)F)OC2)ccc1C(=O)NCc1ccccn1 (stereo not shown) [Compound D15]
≥ 80%: pest or weed control at 12.5 ppm [1] | pest or weed control at 200 ppm [2] | pest or weed control at 200 ppm [3] | pest or weed control at 200 ppm [4] | pest or weed control at 200 ppm [5] | pest or weed control at 12.5 ppm [6] | pest or weed control at 200 ppm [7] | pest or weed control at 200 ppm [8]

Cc1cc(C2=CC(c3cc(Cl)cc(Cl)c3)(C(F)(F)F)OC2)ccc1C(=O)NC1CSC1 (stereo not shown) [Compound D21]
≥ 80%: pest or weed control at 12.5 ppm [1] | pest or weed control at 200 ppm [4] | pest or weed control at 200 ppm [5]

O=C(CNC(=O)c1ccc(C2=CC(c3cc(Cl)cc(Cl)c3)(C(F)(F)F)OC2)nc1Cl)NCC(F)(F)F (stereo not shown) [Compound F1, 2-Chloro-6-[5-(3,5-dichloro-phenyl)-5-trifluoromethyl-2,5-dihydro-furan-3-yl]-N-[(2,2,2-trifluoro-ethylcarbamoyl)-methyl]-nicotinamide]
≥ 80%: pest or weed control at 12.5 ppm [1] | pest or weed control at 200 ppm [2] | pest or weed control at 200 ppm [3] | pest or weed control at 200 ppm [4] | pest or weed control at 200 ppm [5] | pest or weed control at 12.5 ppm [6] | pest or weed control at 200 ppm [7] | pest or weed control at 200 ppm [8]
